Patent publication US20040024024A1, “Aromatic sulfone hydroxamates and their use as protease inhibitors” (priority 2001, published 2004)

What was measured:
Assay in all cases: In vitro MMP inhibition, IC50 determination (fluorogenic substrate I)
Assay type in all cases: biochemical
Conditions in all cases: value outside parentheses (Ki in parenthesis)
Human recombinant MMP-1 = molecular target: T1, Human recombinant MMP-1 (Homo sapiens, UniProt P03956)
T1 construct: made in house; host or cells: MMP-1-transfected HT-1080 cells (spent media)
T1 sequence (P03956 100-469): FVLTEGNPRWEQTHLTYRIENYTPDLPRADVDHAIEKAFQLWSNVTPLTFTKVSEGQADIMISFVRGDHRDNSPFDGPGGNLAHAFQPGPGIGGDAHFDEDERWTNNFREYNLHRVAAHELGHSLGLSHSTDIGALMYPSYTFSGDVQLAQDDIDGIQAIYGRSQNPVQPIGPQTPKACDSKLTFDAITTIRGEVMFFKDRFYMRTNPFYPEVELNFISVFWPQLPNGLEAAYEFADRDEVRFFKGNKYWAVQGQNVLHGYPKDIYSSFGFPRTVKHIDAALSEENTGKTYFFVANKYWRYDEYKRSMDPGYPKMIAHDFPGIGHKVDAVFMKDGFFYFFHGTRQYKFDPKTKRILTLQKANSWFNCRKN
Outline: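 Inhibitor dilutions were made in 100 mM Tris-HCl/100 mM NaCl/10 mM CaCl2 buffer, pH 7.5, and incubated at room temperature with activated proenzyme (from transfected HT-1080 media; APMA or trypsin) and 4 μM quenched methoxycoumarin peptide substrate. Loss of 415 nm fluorescence (328 nm excitation) against concentration gave IC50.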

Human recombinant MMP-2 = molecular target: T2, Human recombinant MMP-2 (Homo sapiens, UniProt P08253)
T2 construct: made in house; host or cells: MMP-2-transfected p2AHT2 cells
T2 sequence (P08253 110-660): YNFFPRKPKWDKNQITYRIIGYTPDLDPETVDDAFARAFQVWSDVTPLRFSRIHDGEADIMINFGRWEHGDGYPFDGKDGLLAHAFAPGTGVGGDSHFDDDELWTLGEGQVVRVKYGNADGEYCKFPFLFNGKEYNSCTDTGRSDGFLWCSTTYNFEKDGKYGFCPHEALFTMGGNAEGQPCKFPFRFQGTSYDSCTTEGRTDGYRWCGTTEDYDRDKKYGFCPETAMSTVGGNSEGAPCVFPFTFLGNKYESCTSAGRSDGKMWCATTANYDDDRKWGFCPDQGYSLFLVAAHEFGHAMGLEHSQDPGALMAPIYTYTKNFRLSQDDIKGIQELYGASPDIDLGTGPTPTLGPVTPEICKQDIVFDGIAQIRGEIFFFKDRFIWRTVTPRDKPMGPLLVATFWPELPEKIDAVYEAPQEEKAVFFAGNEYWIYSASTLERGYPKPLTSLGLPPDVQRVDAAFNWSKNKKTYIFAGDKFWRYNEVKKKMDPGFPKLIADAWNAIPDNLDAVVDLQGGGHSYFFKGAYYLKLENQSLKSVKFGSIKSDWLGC
Outline: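 IC50 was derived from the concentration-dependent fall in fluorescence (ex 328, em 415 nm) on Gly-Leu cleavage of 4 μM MCA/Dpa-quenched substrate I. Assays ran at room temperature in pH 7.5 Tris/NaCl/CaCl2/Brij buffer with MMP-2 activated by trypsin or APMA; inhibitors were diluted from 1% DMSO stocks.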

Human recombinant MMP-9 = molecular target: T3, Human recombinant MMP-9 (Homo sapiens, UniProt P14780)
T3 construct: made in house; host or cells: MMP-9-transfected HT1080 cells (spent media)
Outline: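 Reduction in fluorescence (328 nm excitation, 415 nm emission) from cleavage of 4 μM quenched peptide substrate I, measured at room temperature against inhibitor concentration, gave IC50. Enzyme: trypsin- or APMA-activated MMP-9 purified from transfected HT1080 medium; buffer 100 mM Tris, 100 mM NaCl, 10 mM CaCl2, pH 7.5.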

Human recombinant MMP-13 = molecular target: T4, Human recombinant MMP-13 (Homo sapiens, UniProt P45452)
T4 construct: made in house; host or cells: baculovirus / insect cells
Outline: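 Fluorescence at 415 nm (excitation 328 nm) reports Gly-Leu cleavage of 4 μM quenched methoxycoumarin peptide substrate I. Human recombinant MMP-13, activated by trypsin or APMA, was incubated at room temperature with varied inhibitor concentrations in pH 7.5 Tris/NaCl/CaCl2 buffer; IC50 derived from reduced fluorescence.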

Human recombinant MMP-14 = molecular target: T5, Human recombinant MMP-14 (Homo sapiens, UniProt P50281)
T5 construct: The catalytic domain enzyme was expressed in E. coli inclusion bodies, solubilized in urea; made in house
Outline: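 IC50 came from reduced fluorescence (ex 328 nm, em 415 nm) as inhibitor concentration rose, with 4 μM substrate I cleaved at Gly-Leu. Room-temperature incubation in pH 7.5 Tris buffer with 10 mM CaCl2; the E. coli-expressed, refolded MMP-14 catalytic domain was activated with trypsin or APMA.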

T3 sequence (P14780 107-707 limits assumed): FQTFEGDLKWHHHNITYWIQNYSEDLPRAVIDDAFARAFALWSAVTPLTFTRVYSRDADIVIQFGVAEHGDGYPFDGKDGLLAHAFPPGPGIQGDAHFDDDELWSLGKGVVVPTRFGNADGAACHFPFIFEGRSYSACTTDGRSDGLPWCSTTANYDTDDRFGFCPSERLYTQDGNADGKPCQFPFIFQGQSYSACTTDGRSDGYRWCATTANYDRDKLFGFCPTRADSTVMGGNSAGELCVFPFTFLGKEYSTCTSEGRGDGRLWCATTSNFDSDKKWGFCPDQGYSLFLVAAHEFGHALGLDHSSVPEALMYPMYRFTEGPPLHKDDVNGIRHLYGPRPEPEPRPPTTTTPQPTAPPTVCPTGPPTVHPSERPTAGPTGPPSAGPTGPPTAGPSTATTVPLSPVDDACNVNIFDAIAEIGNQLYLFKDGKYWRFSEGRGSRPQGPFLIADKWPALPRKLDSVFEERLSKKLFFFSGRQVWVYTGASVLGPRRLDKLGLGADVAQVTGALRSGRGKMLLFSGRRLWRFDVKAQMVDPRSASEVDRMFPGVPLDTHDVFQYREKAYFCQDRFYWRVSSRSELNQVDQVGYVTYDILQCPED

## Cc1cc(C(=O)CCCCOc2ccc(S(=O)(=O)C3(C(=O)NO)CCOCC3)cc2)ccc1OC(C)C [Example 340]
Human recombinant MMP-1
  IC50: > 10000 nM
Human recombinant MMP-2
  IC50: 253 nM
Human recombinant MMP-9
  IC50: 5590 nM
Human recombinant MMP-13
  IC50: 1.9 nM
Human recombinant MMP-14
  IC50: > 10000 nM

## O=C(NO)C1(S(=O)(=O)c2ccc(OCCSc3nc4ccccc4s3)cc2)CCOCC1 [Example 341]
Human recombinant MMP-1
  IC50: > 10000 nM
Human recombinant MMP-2
  IC50: 16.8 nM
Human recombinant MMP-9
  IC50: 1120 nM
Human recombinant MMP-13
  IC50: 0.5 nM
Human recombinant MMP-14
  IC50: 6400 nM

## O=C(CCCCOc1ccc(S(=O)(=O)C2(C(=O)NO)CCOCC2)cc1)c1cccc2ccccc12 [Example 342]
Human recombinant MMP-1
  IC50: > 10000 nM
Human recombinant MMP-2
  IC50: 41.2 nM
Human recombinant MMP-9
  IC50: 2170 nM
Human recombinant MMP-13
  IC50: 2 nM
Human recombinant MMP-14
  IC50: > 10000 nM

## COc1ccc(-c2nnc(CCCCOc3ccc(S(=O)(=O)C4(C(=O)NO)CCOCC4)cc3)o2)cc1 [Example 346]
Human recombinant MMP-1
  IC50: > 10000 nM
Human recombinant MMP-2
  IC50: 2.6 nM
Human recombinant MMP-9
  IC50: 2010 nM
Human recombinant MMP-13
  IC50: 0.9 nM
Human recombinant MMP-14
  IC50: > 10000 nM

## O=C(NO)C1(S(=O)(=O)c2ccc(OCCCCS(=O)(=O)C3CCCCC3)cc2)CCOCC1 [Example 348]
Human recombinant MMP-1
  IC50: > 10000 nM
Human recombinant MMP-2
  IC50: 61.8 nM
Human recombinant MMP-9
  IC50: > 10000 nM
Human recombinant MMP-13
  IC50: 4.4 nM
Human recombinant MMP-14
  IC50: > 10000 nM

## O=C(CCCOc1ccc(S(=O)(=O)C2(C(=O)NO)CCOCC2)cc1)Nc1ccccc1O [Example 350]
Human recombinant MMP-1
  IC50: 3280 nM
Human recombinant MMP-2
  IC50: 2.6 nM
Human recombinant MMP-9
  IC50: 271 nM
Human recombinant MMP-13
  IC50: 0.5 nM
Human recombinant MMP-14
  IC50: 2670 nM

## COc1ccc(C(=O)CCCCOc2ccc(S(=O)(=O)C3(C(=O)NO)CCOCC3)cc2)c(OC)c1 [Example 351]
Human recombinant MMP-1
  IC50: > 10000 nM
Human recombinant MMP-2
  IC50: 34.1 nM
Human recombinant MMP-9
  IC50: 2220 nM
Human recombinant MMP-13
  IC50: 1 nM
Human recombinant MMP-14
  IC50: > 10000 nM

## O=C(CCCOc1ccc(S(=O)(=O)C2(C(=O)NO)CCOCC2)cc1)c1cccc2ccccc12 [Example 352]
Human recombinant MMP-1
  IC50: > 10000 nM
Human recombinant MMP-2
  IC50: 33.6 nM
Human recombinant MMP-9
  IC50: 3600 nM
Human recombinant MMP-13
  IC50: 2 nM
Human recombinant MMP-14
  IC50: 6240 nM

## O=C(CCCOc1ccc(S(=O)(=O)C2(C(=O)NO)CCOCC2)cc1)c1cccc(-c2ccccc2)c1 [Example 353]
Human recombinant MMP-1
  IC50: > 10000 nM
Human recombinant MMP-2
  IC50: 25.1 nM
Human recombinant MMP-9
  IC50: 1150 nM
Human recombinant MMP-13
  IC50: 1.8 nM
Human recombinant MMP-14
  IC50: > 10000 nM

## CC(C)(C)c1ccc(C(=O)CCCOc2ccc(S(=O)(=O)C3(C(=O)NO)CCOCC3)cc2)cc1 [Example 355]
Human recombinant MMP-1
  IC50: > 10000 nM
Human recombinant MMP-2
  IC50: 17.4 nM
Human recombinant MMP-9
  IC50: 1070 nM
Human recombinant MMP-13
  IC50: 1.1 nM
Human recombinant MMP-14
  IC50: 3620 nM

## O=C(CCCOc1ccc(S(=O)(=O)C2(C(=O)NO)CCOCC2)cc1)c1ccc(-c2ccccc2)cc1 [Example 356]
Human recombinant MMP-1
  IC50: > 10000 nM
Human recombinant MMP-2
  IC50: 33.1 nM
Human recombinant MMP-9
  IC50: 1650 nM
Human recombinant MMP-13
  IC50: 0.8 nM
Human recombinant MMP-14
  IC50: > 10000 nM

## CN(C)c1ccc(NC(=O)CCCOc2ccc(S(=O)(=O)C3(C(=O)NO)CCOCC3)cc2)cc1 [Example 357]
Human recombinant MMP-1
  IC50: > 10000 nM
Human recombinant MMP-2
  IC50: 10.2 nM
Human recombinant MMP-9
  IC50: 952 nM
Human recombinant MMP-13
  IC50: 1.7 nM
Human recombinant MMP-14
  IC50: > 10000 nM

## O=C(NO)C1(S(=O)(=O)c2ccc(OCCCCCn3cnc4ccccc43)cc2)CCOCC1 [Example 359]
Human recombinant MMP-1
  IC50: > 10000 nM
Human recombinant MMP-2
  IC50: 2.3 nM
Human recombinant MMP-9
  IC50: 1180 nM
Human recombinant MMP-13
  IC50: 1 nM
Human recombinant MMP-14
  IC50: 7960 nM

## O=C(NO)C1(S(=O)(=O)c2ccc(OCCCCCN3CCc4ccccc4C3)cc2)CCOCC1 [Example 360]
Human recombinant MMP-1
  IC50: > 10000 nM
Human recombinant MMP-2
  IC50: 9.7 nM
Human recombinant MMP-9
  IC50: 547 nM
Human recombinant MMP-13
  IC50: 6.4 nM
Human recombinant MMP-14
  IC50: 962 nM

## CN(C)c1ccc(C(=O)NCCCOc2ccc(S(=O)(=O)C3(C(=O)NO)CCOCC3)cc2)cc1 [Example 361]
Human recombinant MMP-1
  IC50: 6000 nM
Human recombinant MMP-2
  IC50: 500 nM
Human recombinant MMP-9
  IC50: > 10000 nM
Human recombinant MMP-13
  IC50: 0.5 nM
Human recombinant MMP-14
  IC50: > 10000 nM
